Assays:
giant foxtail = test: Test A pre-/postemergence herbicide test; format: in vivo, Setaria faberi
Procedure, shortened: (§1)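 Pre: seeded sandy loam, directed soil spray, compound in non-phytotoxic solvent + surfactant. Post: 1–2-leaf plants (2–10 cm), sprayed to runoff. Greenhouse ~10 d; visual injury vs untreated, 0–100 scale.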

velvetleaf = test: Test A pre-/postemergence herbicide test; format: in vivo, Abutilon theophrasti
Procedure, shortened: as §1

redroot pigweed = test: Test A pre-/postemergence herbicide test; format: in vivo, Amaranthus retroflexus
Procedure, shortened: as §1

large crabgrass = test: Test A pre-/postemergence herbicide test; format: in vivo, Digitaria sanguinalis
Procedure, shortened: as §1

ducksalad = test: Test B flooded paddy test; format: in vivo, Heteranthera limosa; details: scale 0 to 100 (0 no effect, 100 complete control)
Procedure, shortened: (§2)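 Each value is a visual 0–100 response rating taken against controls 13 to 15 days after treatment in the greenhouse. Plants received formulated chemical postemergence at the 1- to 4-leaf stage or, in flooded paddy, at the 2-leaf stage.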

[1] = test system: small flower umbrella sedge; test: Test B flooded paddy test; format: in vivo, Cyperus difformis; details: scale 0 to 100 (0 no effect, 100 complete control)
Procedure, shortened: as §2

barnyardgrass [2] = test: Test A pre-/postemergence herbicide test; format: in vivo, Echinochloa crus-galli
Procedure, shortened: as §1

rice = test: Test B flooded paddy test; format: in vivo, Oryza sativa; details: scale 0 to 100 (0 no effect, 100 complete control)
Procedure, shortened: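 Visual ratings, 0 (no effect) to 100 (complete control), made versus controls after 13–15 d greenhouse. Paddy plants treated at 2-leaf stage; postemergence plants at 1- to 4-leaf stage, 2–18 cm tall.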

morningglory = test: Test A pre-/postemergence herbicide test; format: in vivo, Ipomoea spp.
Procedure, shortened: as §1

barnyardgrass [3] = test: Test B flooded paddy test; format: in vivo, Echinochloa crus-galli; details: scale 0 to 100 (0 no effect, 100 complete control)
Procedure, shortened: as §2

[4] = Postemergence, 125 g ai/ha, 0 to 100 scale, 0 no effect, 100 complete control
[5] = Postemergence, 500 g ai/ha, 0 to 100 scale, 0 no effect, 100 complete control
[6] = preemergence, 125 g ai/ha, visual injury, 0 to 100 scale (0 no effect, 100 complete control)
[7] = preemergence, 500 g ai/ha, visual injury, 0 to 100 scale (0 no effect, 100 complete control)

Structure (SMILES)	Foxtail, Giant plant response rating (giant foxtail; [4])	Foxtail, Giant plant response rating (giant foxtail; [5])	Foxtail, Giant plant response rating (giant foxtail; [6])	Foxtail, Giant plant response rating (giant foxtail; [7])	Velvetleaf plant response rating (velvetleaf; [4])	Velvetleaf plant response rating (velvetleaf; [5])	Velvetleaf plant response rating (velvetleaf; [6])	Velvetleaf plant response rating (velvetleaf; [7])	Pigweed plant response rating (redroot pigweed; [4])	Pigweed plant response rating (redroot pigweed; [5])	Pigweed plant response rating (redroot pigweed; [6])	Pigweed plant response rating (redroot pigweed; [7])	Crabgrass, Large plant response rating (large crabgrass; [4])	Crabgrass, Large plant response rating (large crabgrass; [5])	Crabgrass, Large plant response rating (large crabgrass; [6])	Crabgrass, Large plant response rating (large crabgrass; [7])	Ducksalad plant response rating (ducksalad; 125 g ai/ha)	Ducksalad plant response rating (ducksalad; 500 g ai/ha)	Sedge, Umbrella plant response rating ([1]; 125 g ai/ha)	Sedge, Umbrella plant response rating ([1]; 500 g ai/ha)	also measured
CCn1nc(C(C)(C)C)nc1C(=O)Nc1cccc(OC(F)(F)F)c1 [Compound 449]	20	50	60	90	10	20	0	10	20	40	0	50	20	30	35	80	20	70	30	80	Barnyardgrass plant response rating (barnyardgrass [2]; [4]): 20; Barnyardgrass plant response rating (barnyardgrass [2]; [5]): 35; Barnyardgrass plant response rating (barnyardgrass [2]; [6]): 45; Barnyardgrass plant response rating (barnyardgrass [2]; [7]): 90; Rice plant response rating (rice; 125 g ai/ha): 10; Rice plant response rating (rice; 500 g ai/ha): 50; Morningglory plant response rating (morningglory; [4]): 5; Morningglory plant response rating (morningglory; [5]): 15; Morningglory plant response rating (morningglory; [6]): 0; Morningglory plant response rating (morningglory; [7]): 5; Barnyardgrass plant response rating (barnyardgrass [3]; 125 g ai/ha): 0; Barnyardgrass plant response rating (barnyardgrass [3]; 500 g ai/ha): 30
CCc1nn(C(C)(C)C)cc1C(=O)Nc1cc(C(=S)N(C)C)ccc1F [Compound 454]	20	70	10	85	50	70	0	20	40	70	20	90	10	70	50	85	50	70	60	70	Barnyardgrass plant response rating (barnyardgrass [2]; [4]): 40; Barnyardgrass plant response rating (barnyardgrass [2]; [5]): 80; Barnyardgrass plant response rating (barnyardgrass [2]; [6]): 70; Barnyardgrass plant response rating (barnyardgrass [2]; [7]): 85; Rice plant response rating (rice; 125 g ai/ha): 60; Rice plant response rating (rice; 500 g ai/ha): 80; Morningglory plant response rating (morningglory; [4]): 10; Morningglory plant response rating (morningglory; [5]): 50; Morningglory plant response rating (morningglory; [6]): 0; Morningglory plant response rating (morningglory; [7]): 20; Barnyardgrass plant response rating (barnyardgrass [3]; 125 g ai/ha): 50; Barnyardgrass plant response rating (barnyardgrass [3]; 500 g ai/ha): 90
